In article PMC6186498 (Toxicology, 2018):
Read-outs that look alike come from different tables or passages of the source. Marks after values point to notes of the source that are not given here.

How the values were obtained:
kidney = details: cited from earlier work
[1] = for flux through oxidation metabolism pathway over that through conjugation: across all mouse strains examined; for overall flux of glutathione conjugation expressed as dose: after equimolar treatment of TCE or PCE; for yield through glutathione conjugation pathway as % of that through oxidative pathway: range given for TCE and PCE together, approximately; for fraction of the total administered dose remaining unmetabolized until excretion: model estimate at steady state; for TCA(%), percentage of administered TCE excreted in urine / TCOH (%): This study (% estimated), 800 mg/kg oral, M
[2] = cited from earlier work; for inter-strain variability of TCA levels in liver, GSD: Collaborative Cross mouse population
[3] = cited from earlier work
[4] = human, cited from earlier work
[5] = cited from earlier work; for carcinogenicity classification by IARC: ref Guha et al. 2012; for carcinogenicity classification by US EPA: ref U.S. EPA 2011a, b
[6] = at low doses; ref Chiu et al. 2009; cited from earlier work
[7] = mean ± SD, average of all strains, single oral dose 6 mmole/kg
[8] = range over strains, model estimate
[9] = 100 mg/kg oral, mice, PBPK model estimate, ref Chiu et al 2011
[10] = 300 mg/kg oral, mice C57BL/6J, M, ref Cichocki et al 2017
[11] = 10 ppm inhalation, mice, PBPK model estimate, ref Chiu et al 2011
[12] = 100 mg/kg oral, rat, PBPK model estimate, ref Chiu et al 2011
[13] = 10 ppm inhalation, rat, PBPK model estimate, ref Chiu et al 2011
[14] = 100 mg/kg oral, PBPK model estimate, ref Chiu et al 2011
[15] = 1 ppm inhalation, M, ref Chiu et al 2006
[16] = 10 ppm inhalation, PBPK model estimate, ref Chiu et al 2011
[17] = model-derived AUCs across strains
[18] = 200 mg/kg stomach tube, mice NMRI, F, ref Dekant et al. 1984
[19] = 500 mg/kg oral, mice B6C3F1/J, M, ref Green and Prout 1985
[20] = 600 mg/kg oral, mice B6C3F1/J, M, ref Larson and Bull 1992
[21] = 1000 mg/kg oral, mice, PBPK model estimate, ref Chiu et al 2009
[22] = 2100 mg/kg oral, mice B6C3F1/J, M, PBPK model estimate, ref Chiu et al 2014
[23] = 200 mg/kg stomach tube, rat Wistar, F, ref Dekant et al. 1984
[24] = 500 mg/kg oral, rat Osborne-Mendal, M, ref Green and Prout 1985
[25] = 600 mg/kg oral, rat Sprague-Dawley, M, ref Larson and Bull 1992
[26] = 100 ppm inhalation, rat, PBPK model estimate, ref Chiu et al 2009
[27] = 1 ppm inhalation, M, PBPK model estimate, ref Chiu et al 2009
[28] = 70 ppm inhalation, M, ref Monster 1976
[29] = 70 ppm inhalation, M, ref Monster 1979

SMILES: N[C@@H](CSC(Cl)=CCl)C(=O)O [DCVC, S-(1,2-dichlorovinyl)-cysteine]
- lowest dose with some adverse kidney effects observable (kidney; ref Shirai et al. 2012): 1 mg/kg

SMILES: ClC(Cl)=C(Cl)Cl [PCE, tetrachloroethylene]
- flux through oxidation metabolism pathway over that through conjugation [1]: 26–34 fold
- overall flux of glutathione conjugation expressed as dose [1]: 2.9 to 4.5 mg/kg
- First order rate constant, Elimination T/PCE→ [1, 7]: 0.17 ± 0.04 h⁻¹
- First order rate constant, GSH conjugation T/PCE→D/TCVG [1, 7]: (460±230)*10^−6 h^−1
- First order rate constant, Oxidation T/PCE→TCA [1, 7]: 0.014 ± 0.003 h⁻¹
- yield through glutathione conjugation pathway as % of that through oxidative pathway [1]: 0.033%−3.3
- portion of the parent compound that undergoes metabolism ([1]; range over strains): 6.6%–9.7
- estimated fraction of the reactive species formation from cysteine conjugates [1, 8]: 46.7% to 52.6
- fraction of the total administered dose remaining unmetabolized until excretion ([1]; range over strains): 90.3% to 93.5
- GSH conjugation (%) [2, 9]: 0.07%
- Oxidation to GSH [2, 9]: 500
- TCA (%), percentage of administered dose excreted in urine [2, 9]: 35%
- GSH conjugation (%) [2, 10]: 0.79%
- Oxidation to GSH [2, 10]: 7.5
- TCA (%), percentage of administered dose excreted in urine [2, 10]: 5.9%
- GSH conjugation (%) [2, 11]: 0.02%
- Oxidation to GSH [2, 11]: 600
- TCA (%), percentage of administered dose excreted in urine [2, 11]: 12%
- inter-strain variability of TCA levels in liver, GSD ([2]; single oral dose of PCE, ref Cichocki et al. 2017b): 1.64
- exhalation fraction of PCE ([2]; mice orally dosed with 500 mg/kg 14C-labelled PCE, ref Schumann et al. 1980): 82.6%
- GSH conjugation (%) [3, 12]: 0.6%
- Oxidation to GSH [3, 12]: 14.8
- TCA (%), percentage of administered dose excreted in urine [3, 12]: 8.9%
- Oxidation to GSH ([3]; 10 ppm inhalation, rat Wistar, M&F, ref Volkel et al 1998): 623.6
- GSH conjugation (%) [3, 13]: 0.2%
- Oxidation to GSH [3, 13]: 19.5
- TCA (%), percentage of administered dose excreted in urine [3, 13]: 3.9%
- Oxidation to GSH ([3]; 20 ppm inhalation, rat Wistar, M&F, ref Volkel et al 1998): 540.6
- Oxidation to GSH ([3]; 40 ppm inhalation, rat Wistar, M&F, ref Volkel et al 1998): 316.4
- GSH conjugation (%) [4, 14]: 18%
- Oxidation to GSH [4, 14]: 0.1
- TCA (%), percentage of administered dose excreted in urine [4, 14]: 1.8%
- TCA (%), percentage of administered dose excreted in urine [4, 15]: 0.2–0.8%
- Oxidation to GSH ([4]; 10 ppm inhalation, M&F, ref Volkel et al 1998): 107.7
- GSH conjugation (%) [4, 16]: 9.4%
- Oxidation to GSH [4, 16]: 0.1
- TCA (%), percentage of administered dose excreted in urine [4, 16]: 0.98%
- Oxidation to GSH ([4]; 20 ppm inhalation, M&F, ref Volkel et al 1998): 89.1
- Oxidation to GSH ([4]; 40 ppm inhalation, M&F, ref Volkel et al 1998): 96.3
- TCA (%), percentage of administered dose excreted in urine ([4]; 72 ppm inhalation, M, ref Monster 1979): 2%
- carcinogenicity classification by IARC [5]: probably carcinogenic to humans
- carcinogenicity classification by US EPA [5]: likely to be a human carcinogen

SMILES: ClC=C(Cl)Cl [TCE, Trichloroethylene]
- AUC0–36 of TCE as compared to AUC0–36 of PCE, kidney ([1]; B6C3F1/J mice, kidney): 2.0%
- AUC0–36 of TCE as compared to AUC0–36 of PCE, liver ([1]; B6C3F1/J mice, liver): 43.9%
- AUC0–36 of TCE as compared to AUC0–36 of PCE, lung ([1]; B6C3F1/J mice, lung): 36.2%
- AUC0–36 of TCE as compared to AUC0–36 of PCE, serum ([1]; B6C3F1/J mice, serum): 39.8%
- TCA(%), percentage of administered TCE excreted in urine ([1]; mice B6C3F1/J): 5.8%
- TCOH (%) ([1]; mice B6C3F1/J): 21%
- TCA(%), percentage of administered TCE excreted in urine ([1]; mice C57BL/6J): 3.5%
- TCOH (%) ([1]; mice C57BL/6J): 12%
- TCA(%), percentage of administered TCE excreted in urine ([1]; mice NZW/LacJ): 7.1%
- TCOH (%) ([1]; mice NZW/LacJ): 31%
- flux through oxidation metabolism pathway over that through conjugation [1]: 1,200–3,800 fold
- overall flux of glutathione conjugation expressed as dose [1]: 0.13 to 0.17 mg/kg
- elimination constant for n-acetylcysteine conjugates in TCE-treated as compared to PCE-treated mice ([1]; higher): 1.5 fold
- TCE elimination rate constant relative to that for PCE ([1]; higher than PCE): 2.8 fold
- formation rate constant of TCA (KTCA) in TCE-treated versus PCE-treated mice ([1]; higher than in PCE-treated mice): 2.4 fold
- First order rate constant, Elimination NAcT/DCVC→ [1, 7]: 23.8 ± 10.5 h⁻¹
- First order rate constant, Elimination T/PCE→ [1, 7]: 0.49 ± 0.12 h⁻¹
- First order rate constant, Elimination TCA→ [1, 7]: 0.05 ± 0.02 h⁻¹
- First order rate constant, Elimination TCOH→ [1, 7]: 0.49 ± 0.13 h⁻¹
- First order rate constant, GSH conjugation D/TCVC→NAcD/TCVC [1, 7]: 73.4 ± 17.4 h⁻¹
- First order rate constant, GSH conjugation D/TCVC→Reactive species [1, 7]: 1.69 ± 0.45 h⁻¹
- First order rate constant, GSH conjugation D/TCVG→D/TCVC [1, 7]: 0.30 ± 0.07 h⁻¹
- First order rate constant, GSH conjugation T/PCE→D/TCVG [1, 7]: (3.5±1.1)*10^−6 h^−1
- First order rate constant, Oxidation T/PCE→TCA [1, 7]: 0.034 ± 0.010 h⁻¹
- First order rate constant, Oxidation T/PCE→TCOH [1, 7]: 0.13 ± 0.04 h⁻¹
- inter-strain variability of AUC of glutathione conjugation metabolites, GSD [1, 17]: 1.04−1.92
- inter-strain variability of AUC of oxidative metabolites (TCA and TCOH), GSD [1, 17]: 1.24−2.04
- AUC0–36 of TCE as compared to AUC0–36 of PCE, brain ([1]; mouse, in vivo): 29.0%
- elimination rate constant (Ke) of TCA in TCE-treated mice as % of that in PCE-treated mice ([1]; mouse, in vivo): 62.5%
- yield through glutathione conjugation pathway as % of that through oxidative pathway [1]: 0.033%−3.3
- portion of the parent compound that undergoes metabolism ([1]; range over strains): 15.7%−38.3
- Excreted TCA, % of the total dose [1, 8]: 3.5%−7.1
- TCOH, % of the total dose [1, 8]: 12.2−31.2%
- estimated fraction of the reactive species formation from cysteine conjugates [1, 8]: 2.1% to 2.4
- fraction of the total administered dose remaining unmetabolized until excretion ([1]; range over strains): 61.7% to 84.3
- AUC0–36 of TCA in TCE-treated mice as compared to PCE-treated mice ([1]; serum, liver, brain, and lung, except for C57BL/6J mice, higher): 1.2–1.7 fold
- TCA(%), percentage of total urinary metabolite calculated based on radioactivity [2, 18]: 0.1 ^* %
- TCOH (%), percentage of total urinary metabolite calculated based on radioactivity [2, 18]: 94.3 ^* %
- TCA(%), percentage of total urinary metabolite calculated based on radioactivity [2, 19]: 7.2 ^* %
- TCOH (%), percentage of total urinary metabolite calculated based on radioactivity [2, 19]: 91.1 ^* %
- TCA(%), percentage of administered TCE excreted in urine [2, 20]: 3.9%
- TCOH (%) [2, 20]: 31%
- GSH conjugation (%) [2, 21]: 0.2%
- Oxidation to GSH [2, 21]: 450
- TCA(%) and TCOH (%), one cell spanning both columns [2, 21]: 90%
- GSH conjugation (%) [2, 22]: 0.065%
- Oxidation to GSH [2, 22]: 290
- TCA(%), percentage of administered TCE excreted in urine [2, 22]: 4.4%
- inter-strain variability of TCA levels in liver, GSD ([2]; single oral dose of TCE, ref Venkatratnam et al. 2017): 2.24
- TCA(%), percentage of total urinary metabolite calculated based on radioactivity [3, 23]: 15.3 ^* %
- TCOH (%), percentage of total urinary metabolite calculated based on radioactivity [3, 23]: 73.6 ^* %
- TCA(%), percentage of total urinary metabolite calculated based on radioactivity [3, 24]: 6.3 ^* %
- TCOH (%), percentage of total urinary metabolite calculated based on radioactivity [3, 24]: 90.1 ^* %
- TCA(%), percentage of administered TCE excreted in urine [3, 25]: 4.1%
- TCOH (%) [3, 25]: 23.2%
- GSH conjugation (%) [3, 26]: 0.06%
- Oxidation to GSH [3, 26]: 666.7
- TCA(%) and TCOH (%), one cell spanning both columns [3, 26]: 40%
- TCA(%), percentage of administered TCE excreted in urine ([3]; 505 ppm inhalation, rat F344, M, PBPK model estimate, ref Fisher et al. 1991): 6%
- GSH conjugation (%) [4, 27]: 5%
- Oxidation to GSH [4, 27]: 7.6
- TCA(%) and TCOH (%), one cell spanning both columns [4, 27]: 38%
- TCA(%), percentage of administered TCE excreted in urine [4, 15]: 1–2%
- TCOH (%) [4, 15]: 16–28%
- TCA(%), percentage of administered TCE excreted in urine [4, 28]: 18%
- TCOH (%) [4, 28]: 39%
- TCA(%), percentage of administered TCE excreted in urine [4, 29]: 21%
- TCOH (%) [4, 29]: 43%
- glutathione conjugation metabolites of TCE in rodents as % of that in humans [6]: approximately 1%
- carcinogenicity classification by IARC [5]: carcinogenic to humans
- carcinogenicity classification by US EPA [5]: carcinogenic to humans

SMILES: OCC(Cl)(Cl)Cl [TCOH, trichloroethanol]
- AUC0–36 of TCOH compared to that of TCA, brain ([1]; TCE-treated mice, brain): 22.7–53.1%
- AUC0–36 of TCOH compared to that of TCA, kidney ([1]; TCE-treated mice, kidney): 266–322%
- tissue in which TCOH is most abundant ([1]; TCE-treated mice, liver, kidney, brain, lung, serum examined): most abundant in kidney
- AUC0–36 of TCOH compared to that of TCA, lung ([1]; TCE-treated mice, lung): 49.8–68.7%
- AUC0–36 of TCOH compared to that of TCA, serum ([1]; TCE-treated mice, serum): 35.7–60%

SMILES: N[C@@H](CSC(Cl)=C(Cl)Cl)C(=O)O [TCVC, S-(1,2,2-trichlorovinyl)-L-cysteine]
- doses at which most studies reported kidney effects (kidney; directly administered cysteine conjugates, acute, sub-acute and sub-chronic exposure, ref Birner et al. 1997, Shirai et al. 2012, Vaidya et al. 2003): above 10 mg/kg
- comparative nephrotoxicity of TCVC and DCVC (kidney; equimolar doses compared, ref Birner et al. 1997): more nephrotoxic than DCVC
